Laboratory results reported in US5167948A, “Diagnostic or radiotherapeutic composition comprising a hydrogen containing compound” (priority 1987, dated 1992).

Legend:
[1] = 103Ru-concentration in organs of rats after injection of Rc-amphetamine derivatives; assay type: in vivo; conditions: for 103Ru-concentration, brains / 103Ru-concentration, lungs / 103Ru-concentration, suprarenal glands: 0.5 μmol/kg; for D/H, brains / D/H, lungs / D/H, suprarenal glands: quotient deuterated / non-deuterated
Procedure: The above compounds are intravenously administered in doses of approx. 0.5 μmol/kg to two groups of each 4 rats. The compounds can be represented by the following formula: [drawing 7] After certain periods of time between 0 and 90 minutes after injection test animals are sacrificed and the ^103 Ru-concentration in the brains is determined. The results are graphically recorded in FIG. 1: the ^103 Ru-concentration (C) in the brains i.c. % dose/% body weight (% d/% wt), is plotted against the time (t) in min.
In the same way as described in Example X the effect of deuteration of N-methyl- and N,N-dimethylderivatives of ^103 Ru-labelled ruthenocene-amphetamine is investigated in vivo: groups of 3 or 4 rats as test animals; dose: 0.5 μmol/kg. After 15 or 20 minutes the ^103 Ru-concentration is determined in various organs of the rats, viz. brains, lungs and suprarenal glands, and presented in table B for the compounds tested. As will be apparent from the D/H value, i.e. the quotient of the ^103 Ru concentration of the deuterated compound and that of the non-deuterated compound, in all experiments except one (free amine-lungs) the affinity of the deuterated compounds to the organs is increased compared to the non-deuterated compounds.

[2] = Determination of the relaxation of the water protons (relaxation time T1, inversion recovery method); assay type: physicochemical; conditions: for T1: 2 millimolar solution in water, 89.55 MHz, room temp.
Procedure: Determination of the relaxation of the water protons by adding paramagnetic deuterated ferricinium compounds compared to the corresponding non-deuterated compounds. The following compounds are tested:
From the above compounds 2 millimolar solutions in water are prepared. Of these solutions the relaxation time T1 is determined at 89.55 MHz on a JEOL FX-90Q NMR spectrometer using the inversion recovery method (room temp.). In the experiments comprising in addition deuterium oxide, D2 O is added in a quantity of 1.0 mMole to a volume of 100 ml of the solution.

[3] = tracer amounts, man; in words; cited from earlier work
[4] = + D2O, 1.0 mMole added to 100 ml of the solution

Compound: [103Ru+2].[2H]C([c-]1cccc1)C([2H])(C)NC([2H])([2H])[2H].c1cc[cH-]c1 (stereo not drawn) [--N-methyl D]
- 103Ru-concentration, brains ([1]; 15 min.): 2.56 % dosis/% body weight
- 103Ru-concentration, lungs ([1]; 15 min.): 11.3 % dosis/% body weight
- 103Ru-concentration, suprarenal glands ([1]; 15 min.): 8.3 % dosis/% body weight
- D/H, brains ([1]; 15 min.): 1.12
- D/H, lungs ([1]; 15 min.): 1.26
- D/H, suprarenal glands ([1]; 15 min.): 1.77

Compound: [(C5 D5)2 Fe]^+ BF4^- [(d)]
- T1 [2]: 1.04 s

Compound: [2H]O[2H] [D2 O, deuterium oxide]
- effect of D2O on relaxation time ([2]; in words, not bound to the complex): does not change the relaxation time significantly

Compound: [103Ru+2].[2H]C([c-]1cccc1)C([2H])(C)N(C([2H])([2H])[2H])C([2H])([2H])[2H].c1cc[cH-]c1 (stereo not drawn) [--N,N-dimethyl D]
- 103Ru-concentration, brains ([1]; 15 min.): 3.33 % dosis/% body weight
- 103Ru-concentration, lungs ([1]; 15 min.): 10.5 % dosis/% body weight
- 103Ru-concentration, suprarenal glands ([1]; 15 min.): 11.9 % dosis/% body weight
- D/H, brains ([1]; 15 min.): 1.45
- D/H, lungs ([1]; 15 min.): 1.32
- D/H, suprarenal glands ([1]; 15 min.): 1.57

Compound: [(CH3 -C5 H4)2 Fe]^+ BF4^- [(a)]
- T1 [2]: 1.62 s
- T1 [2, 4]: 1.60 s

Compound: [2H]C([c-]1cccc1)C([2H])(C)N.[Ru+2].c1cc[cH-]c1 (stereo not drawn) [--NH2 D, ^103 Ru-1-ruthenocenyl-2-aminopropane-1,2-d2]
- 103Ru-concentration, brains ([1]; 20 min.): 2.56 % dosis/% body weight
- 103Ru-concentration, lungs ([1]; 20 min.): 10.5 % dosis/% body weight
- 103Ru-concentration, suprarenal glands ([1]; 20 min.): 6.2 % dosis/% body weight
- D/H, brains ([1]; 20 min.): 1.31
- D/H, lungs ([1]; 20 min.): 0.85
- D/H, suprarenal glands ([1]; 20 min.): 1.29
- D/H, lungs ([1]; 20 min., listed as free amine): decreased value

Compound: [(CH3 -C5 D4)2 Fe]^+ BF4^- [(b)]
- T1 [2]: 1.23 s

Compound: [2H]C([2H])([2H])CC(=O)C(CC(C)N(C)C)(c1ccccc1)c1ccccc1 (stereo not drawn) [methadone-d3]
- metabolic behaviour compared with the unmodified drug [3]: substantially identical metabolic behaviour

Compound: F[B-](F)(F)F.[Fe+3].c1cc[cH-]c1.c1cc[cH-]c1 [(c), [(C5 H5)2 Fe]^+ BF4^-]
- T1 [2]: 1.65 s
- T1 [2, 4]: 1.64 s
